Assay results as given in publication PMC11996864, “A small-molecule inhibitor of BCL10-MALT1 interaction abrogates progression of diffuse large B cell lymphoma” (The Journal of Clinical Investigation, 2025).
Where “and” joins values, the source holds several entries; their conditions need not be identical. Equal entries are not always repeated.

How the values were obtained:
Format in all cases: cell-based, human
[1] = system: RelB cleavage in TMD8 cells; test: Constitutive RelB cleavage, Western blot; conditions: result in words
Procedure: (§1) Western blot analysis of RelB and N4BP1 cleavage was used to test the effect of small molecules on MALT1 protease activity. To this end, 3 million Jurkat T cells were pretreated with compounds for 24 hours in serum-free media, and then 5 μM MG-132 was added for 1 hour before stimulation with CD3/CD28 (Stemcell Technologies, catalog 10971), and lysed in RIPA buffer (Millipore, catalog 20-188) with protease and phosphatase inhibitor cocktail (Pierce, catalog 78446). IKKα/β phosphorylation and IκBα phosphorylation were used as measures of MALT1 scaffolding activity, while ERK1/2 phosphorylation was used as a control. Two million Jurkat T cells were treated with 1 μM M1i-124, 1 μM M1i-124d1, or DMSO in serum-free media for 16 hours, stimulated with CD3/CD28 for 0, 5, 10, or 20 minutes, and then immediately lysed in RIPA buffer with protease and phosphatase inhibitors. For experiments evaluating RelB cleavage and phosphorylation of IκBα in TMD8 cells, cells were treated with compounds for 24 hours in media containing 5% FBS. For RelB Western blot analysis, 5 μM MG-132 (Cell Signaling Technology, catalog 2194s) was added 4 hours before lysis in RIPA lysis buffer with protease/phosphatase inhibitors.

[2] = system: IL2 mRNA in Jurkat T cells; test: IL2 mRNA induction by PMA/Iono, qRT-PCR
Procedure: qRT-PCR. Jurkat T cells grown in serum free media for 4 hours with indicated inhibitors prior to stimulation with PMA/Ionomycin for 4 hours. […]
Total RNA extraction from the […]
(§2) Kit. RNA was transcribed into cDNA using High-Capacity cDNA Reverse Transcription Kit (Applied Biosystems, Cat# 4368814) according to manufacturer’s instructions. RT-PCR was performed using TaqMan Universal PCR Master Mix (Applied Biosystems, Cat# 4304437) and run on a StepOnePlus Real-Time PCR machine (Applied Biosystems). The following probes from ThermoFisher Scientific were used for qRT-PCR: IL2 TaqMan probe Hs00174114, IL6 TaqMan

OCI-Ly3 cells [3] = test: Cell proliferation, trypan blue cell count; conditions: Mepazine at 1 µM
TMD8 cells [4] = test: IL6 and IL10 mRNA, qRT-PCR; conditions: TMD8, 1 μM
Procedure: TMD8 cells were treated with small molecule inhibitors for 24 with cultures conditions described above except that FBS was 5%. OCI-Ly3 were treated with inhibitors in serum free media for 24 hours. Total RNA extraction from cell lines was performed using RNeasy Plus Mini Kit (Qiagen, Cat# 74136). […]
as §2

[5] = system: BCL10 and MALT1 protein in OCI-Ly3 cells; test: BCL10 and MALT1 protein levels, Western blot; conditions: OCI-Ly3, 1 μM, 72 hours, result in words
Procedure: (§3) To test the possibility that M1i-124 destabilizes BCL10 and MALT1 within the cell as a consequence of disrupting BCL10-MALT1 interaction, we treated ABC-DLBCL cell lines (TMD8, OCI-Ly3) with M1i-124 for 72 hours and measured the cellular levels of the BCL10 and MALT1 proteins by Western blotting.
(§4) Figure 5 M1i-124 treatment leads to loss of BCL10 and MALT1 protein content in ABC-DLBCL cells. (A) Representative Western blots showing loss of BCL10 and MALT1 proteins, but not ERK1/2 protein, in TMD8 and OCI-Ly3 cells after 72 hours of treatment with 1 μM M1i-124. […] (B) Representative Western blots showing time-dependent loss of BCL10 and MALT1 in TMD8 cells treated with 1 μM M1i-124. (C) Representative Western blots showing dose-dependent loss of BCL10 and MALT1 proteins in TMD8 cells treated with […]. For A–C, band quantifications, normalized for GAPDH, are indicated below each blot. (D) Time-dependent change in BCL10 and MALT1 mRNA expression levels with 1 μM M1i-124 treatment in TMD8 cells. Statistical analysis was performed using unpaired t test between 0 hours and 72 hours (mean ± SEM; n = 3). *P < 0.05, ****P < 0.0001.

[6] = system: BCL10 and MALT1 protein in TMD8 cells; test: BCL10 and MALT1 protein levels, Western blot; conditions: TMD8, 1 μM, 72 hours, result in words
Procedure: as §3, §4

[7] = system: IL-2 secretion from Jurkat T cells; test: Secreted IL-2 ELISA after PMA/Iono; conditions: for IL-2: Jurkat, PMA/Iono
Procedure: Cytokine ELISAs. Cytokines in cell culture supernatants were measured 20-24h after treatment with 0, 0.01, 0.03, 0.1, 0.3, 1, or 3 µM of compounds using the following ELISA kits according to the manufacturer’s instructions: Human IL-2 ELISA (BioLegend Cat# 431804), Human IL-6 ELISA (BioLegend Cat# 430504), and Human IL-10 ELISA (BioLegend Cat# 430604). […]
Jurkat T cells were pretreated with specific doses of compounds for 8 hours in serum-free media, then stimulated with PMA/ionomycin for 16 hours prior to the collection of supernatants. […]

OCI-Ly7 cells = test: Cell proliferation, trypan blue cell count
Text: (§5) Cell proliferation, viability, and apoptosis assays. Starting with ~20,000 DLBCL cells in 5% FBS
(§6) at day 0, cell number was counted using the trypan blue dye exclusion method with Vi-CELL cell

TMD8 cells [8] = test: Cell proliferation, trypan blue cell count
Text: as §5, §6

OCI-Ly1 cells = test: Cell proliferation, trypan blue cell count
Text: as §5, §6

[9] = system: N4BP1 cleavage in Jurkat T cells; test: CD3/CD28-induced N4BP1 cleavage, Western blot (MALT1 protease activity)
Procedure: as §1

[10] = system: RelB cleavage in Jurkat T cells; test: CD3/CD28-induced RelB cleavage, Western blot (MALT1 protease activity); conditions: result in words
Procedure: as §1

OCI-Ly3 cells [11] = test: IL6 and IL10 mRNA, qRT-PCR
Procedure: Total RNA extraction from cell lines was performed using RNeasy Plus Mini Kit (Qiagen, Cat# 74136). […]
as §2

COc1ccc(CNS(=O)(=O)c2ccc(Cc3ccc(S(=O)(=O)NCc4ccc(OC)cc4)cc3)cc2)cc1 [M1i-124d1]
RelB cleavage in TMD8 cells [1]: markedly reduced cleavage of RelB | IL2 mRNA (normalized) ([2]; Jurkat, 1 μM, + PMA/Iono): 0.5238 and 0.3763 and 0.462 | PMA/Iono-induced IL2 gene expression ([2]; pretreatment 4 hours, result in words): reduction in PMA/Iono–induced IL2 gene expression | OCI-Ly3 Viable Cells (OCI-Ly3 cells [3]; Day 0): 20000 | OCI-Ly3 Viable Cells (OCI-Ly3 cells [3]; Day 12): 340000 and 290000 and 320000 | IL-10 mRNA (normalized) (TMD8 cells [4]): 0.31 and 0.33 and 0.37 and 0.53 and 0.28 and 0.52 | IL6 and IL10 mRNA levels (TMD8 cells [4]; 24 hours, result in words): significantly decrease IL6 and IL10 mRNA levels | BCL10 and MALT1 protein levels [5]: lesser effect | BCL10 and MALT1 protein levels [6]: lesser effect | IL-2 ([7]; 0.01uM): 893.077 pg/mL and 1049.97 pg/mL and 735.049 pg/mL | IL-2 ([7]; 0.03uM): 736.84 pg/mL and 714.598 pg/mL and 588.162 pg/mL | IL-2 ([7]; 0.1uM): 433.515 pg/mL and 416.061 pg/mL and 330.961 pg/mL | IL-2 ([7]; 0.3uM): 349.469 pg/mL and 340.243 pg/mL and 270.034 pg/mL | IL-2 ([7]; 1uM): 458.584 pg/mL and 443.361 pg/mL and 398.637 pg/mL | IL-2 ([7]; 3uM): 550.731 pg/mL and 484.757 pg/mL and 435.445 pg/mL | IL-2 secretion from Jurkat T cells ([7]; result in words): dose-dependent reduction in IL-2 secretion | expansion of culture (proliferation) (OCI-Ly7 cells; OCI-Ly7, single 1 μM dose, 12 days, result in words): no effect on expansion | Viable cell count (OCI-Ly7 cells; second block headed OCI-Ly1, Day 0, Mepazine at 1 µM): 20000 and 40000 | TMD8 Viable Cells (TMD8 cells [8]; Day 0, Mepazine at 1 µM): 20000 | expansion of culture (proliferation) (TMD8 cells [8]; TMD8, single 1 μM dose, 12 days, result in words): significant reduction in the expansion | OCI-Ly1 Viable Cells (OCI-Ly1 cells; Day 0, Mepazine at 1 µM): 40000 and 20000 | expansion of culture (proliferation) (OCI-Ly1 cells; OCI-Ly1, single 1 μM dose, 12 days, result in words): no effect on expansion | N4BP1 cleavage ratio ([9]; Jurkat T cells, 1 μM pretreatment, + CD3/CD28): 0.7459 and 0.3808 and 0.4872 and 0.5302 | N4BP1 cleavage in stimulated Jurkat T cells ([9]; result in words): suppressed the cleavage | RelB cleavage in stimulated Jurkat T cells [10]: suppressed the cleavage | IL6 and IL10 mRNA levels (OCI-Ly3 cells [11]; OCI-Ly3, 1 μM, 24 hours, result in words): significantly decrease IL6 and IL10 mRNA levels | IL6 mRNA levels (normalized) (OCI-Ly3 cells [11]; Suppl Fig. 5C): 0.61 and 0.76 and 0.58 and 0.67 and 0.68 | IL10 mRNA levels (normalized) (OCI-Ly3 cells [11]; Suppl Fig. 5C): 0.5473 and 0.5 and 0.74 and 0.4125 and 0.4002 and 0.6402
